The values below come from patent US12559529B2, “NPY2 receptor agonists” (Boehringer Ingelheim International GmbH, priority 2019, dated 2026).

In assay [1] the target is T1, Human Neuropeptide Y2 Receptor (Homo sapiens, UniProt P49146).
T1 construct: purchased CHEMICON HTS066M
T1 sequence (P49146 1-381): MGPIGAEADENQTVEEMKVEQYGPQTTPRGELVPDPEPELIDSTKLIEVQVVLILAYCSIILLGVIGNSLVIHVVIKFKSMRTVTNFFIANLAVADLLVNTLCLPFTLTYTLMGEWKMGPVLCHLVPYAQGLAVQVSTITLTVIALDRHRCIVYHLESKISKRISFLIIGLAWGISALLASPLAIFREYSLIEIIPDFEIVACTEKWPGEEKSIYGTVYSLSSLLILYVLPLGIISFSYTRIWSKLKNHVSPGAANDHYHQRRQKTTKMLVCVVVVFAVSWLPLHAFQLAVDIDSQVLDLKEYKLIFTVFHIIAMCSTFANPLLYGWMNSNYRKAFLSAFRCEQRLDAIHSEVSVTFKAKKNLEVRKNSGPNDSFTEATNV
Put plainly: Radioligand binding competition assay (RLB). The settings on record: Table 3; human 125I-PYY (1-36) 0.02 nM, Y2 receptor membranes; read-out: Ki. A digest of the protocol:
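IC50 values come from nonlinear regression of sigmoidal dose-response curves of filter-bound radioactivity. Peptides competed with radioligand at human Y2 receptor membranes (0.5 μg protein/well) for 2 h at room temperature in pH 7.4 HEPES buffer containing Mg2+, Ca2+ and 0.2% ovalbumin.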

Assay [2] has as its system normal NMRI mice. Description: Effect on acute food intake in normal NMRI mice. In kind it is in vivo. The settings on record: male NMRI mice, 10 nmol/kg subcutaneously once. A digest of the protocol: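 Male NMRI mice acclimatized in an HM-2 real-time food intake monitoring system, fasted 6 h before dark phase. Single subcutaneous dose of 10 nmol/kg peptide given 1 h before dark; n=7-8. Food intake expressed as % of vehicle group (50 mM phosphate pH7, 5% Mannitol).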

In general, Ki refers to the dissociation constant of the complex between target and ligand, obtained from inhibition or displacement. As to `CC(C)CC(=O)N[C@@H](C)C(=O)N1CCC[C@H]1C(=O)N[C@@H](CCC(=O)O)C(=O)N[C@@H](CCCCNC(=O)COCCOCCNC(=O)COCCOCCNC(=O)CC[C@H](NC(=O)CCCCCCCCCCCCCCCCC(=O)O)C(=O)O)C(=O)N1CCC[C@H]1C(=O)N[C@@H](CCC(=O)O)C(=O)N[C@@H](CCC(=O)O)C(=O)N[C@@H](CC(=O)O)C(=O)N[C@@H](C)C(=O)N[C@@H](CO)C(=O)N[C@@H](CCC(=O)O)C(=O)N[C@@H](CCC(=O)O)C(=O)N[C@@H](CCC(=O)O)C(=O)N[C@@H](CC(C)C)C(=O)N[C@@H](CCC(N)=O)C(=O)N[C@@H](CCCNC(=N)N)C(=O)N[C@@H](Cc1ccc(O)cc1)C(=O)N[C@@H](Cc1ccc(O)cc1)C(=O)N[C@H](C(=O)N[C@@H](CO)C(=O)N[C@@H](CC(C)C)C(=O)N[C@@H](CCCNC(=N)N)C(=O)N[C@@H](Cc1c[nH]cn1)C(=O)N[C@@H](Cc1ccc(O)cc1)C(=O)N[C@@H](Cc1ccc(O)cc1)C(=O)N[C@@H](CC(N)=O)C(=O)N[C@@H](Cc1c[nH]c2ccccc12)C(=O)N[C@@H](CC(C)C)C(=O)N[C@H](C(=O)N[C@@H](CCCNC(=N)N)C(=O)N[C@@H](CCC(N)=O)C(=O)N[C@@H](CCCNC(=N)N)C(=O)N[C@@H](Cc1ccc(O)cc1)C(N)=O)[C@@H](C)O)C(C)C` [Compound 176, N{alpha-4}-(3-methylbutanoyl)-N{epsilon-7}-[2-(2-{2-[2-(2-{2-[(4S)-4-carboxy-4-(17-carboxyheptadecanamido)butanamido]ethoxy}ethoxy)acetamido]ethoxy}ethoxy)acetamido]-[4A,7K,9E,14E,18Q,22V,28Y,30W,31L]hPYY (4-36)], the Ki in assay [1] was 3.05 nM. In addition, the “Acute Food Intake 24 h [% vehicle]” value in assay [2] is 52 % vehicle.

In the case of `CC(C)CC(=O)N[C@@H](C)C(=O)N1CCC[C@H]1C(=O)N[C@@H](CCC(=O)O)C(=O)N[C@@H](CCCCNC(=O)COCCOCCNC(=O)COCCOCCNC(=O)CC[C@H](NC(=O)CCCCCCCCCCCCCCCCC(=O)O)C(=O)O)C(=O)N1CCC[C@H]1C(=O)N[C@@H](CCC(=O)O)C(=O)N[C@@H](CCC(=O)O)C(=O)N[C@@H](CC(=O)O)C(=O)N[C@@H](C)C(=O)N[C@@H](CO)C(=O)N1CCC[C@H]1C(=O)N[C@@H](CCC(=O)O)C(=O)N[C@@H](C)C(=O)N[C@@H](CC(C)C)C(=O)N[C@@H](CCC(N)=O)C(=O)N[C@@H](CCCNC(=N)N)C(=O)N[C@@H](Cc1ccc(O)cc1)C(=O)N[C@@H](Cc1ccc(O)cc1)C(=O)N[C@H](C(=O)N[C@@H](CCC(=O)O)C(=O)N[C@@H](CC(C)C)C(=O)N[C@@H](CCCNC(=N)N)C(=O)N[C@@H](Cc1c[nH]cn1)C(=O)N[C@@H](Cc1ccc(O)cc1)C(=O)N[C@@H](Cc1ccc(O)cc1)C(=O)N[C@@H](CC(N)=O)C(=O)N[C@@H](Cc1c[nH]c2ccccc12)C(=O)N[C@@H](CC(C)C)C(=O)N[C@H](C(=O)N[C@@H](CCCNC(=N)N)C(=O)N[C@@H](CCC(N)=O)C(=O)N[C@@H](CCCNC(=N)N)C(=O)N[C@@H](Cc1ccc(O)cc1)C(N)=O)[C@@H](C)O)C(C)C` [Compound 195, N{alpha-4}-(3-methylbutanoyl)-N{epsilon-7}-[2-(2-{2-[2-(2-{2-[(4S)-4-carboxy-4-(17-carboxyheptadecanamido)butanamido]ethoxy}ethoxy)acetamido]ethoxy}ethoxy)acetamido]-[4A,7K,9E,16A,18Q,22V,23E,28Y,30W,31L]hPYY (4-36)], in assay [1], the Ki came out at 0.75 nM. For the same molecule, the “Acute Food Intake 24 h [% vehicle]” value in assay [2] is reported as 50 % vehicle.

With `CC(C)CC(=O)N[C@@H](C)C(=O)N1CCC[C@H]1C(=O)N[C@@H](CCC(=O)O)C(=O)N[C@@H](CCCCNC(=O)COCCOCCNC(=O)COCCOCCNC(=O)CC[C@H](NC(=O)CCCCCCCCCCCCCCCCC(=O)O)C(=O)O)C(=O)N1CCC[C@H]1C(=O)N[C@@H](CCC(=O)O)C(=O)N[C@@H](CCC(=O)O)C(=O)N1CCC[C@H]1C(=O)N[C@@H](C)C(=O)N[C@@H](CO)C(=O)N1CCC[C@H]1C(=O)N[C@@H](CCC(=O)O)C(=O)N[C@@H](CCC(=O)O)C(=O)N[C@@H](CC(C)C)C(=O)N[C@@H](CCC(N)=O)C(=O)N[C@@H](CCCNC(=N)N)C(=O)N[C@@H](Cc1ccc(O)cc1)C(=O)N[C@@H](Cc1ccc(O)cc1)C(=O)N[C@H](C(=O)N[C@@H](CCC(=O)O)C(=O)N[C@@H](CC(C)C)C(=O)N[C@@H](CCCNC(=N)N)C(=O)N[C@@H](Cc1c[nH]cn1)C(=O)N[C@@H](Cc1ccc(O)cc1)C(=O)N[C@@H](Cc1ccc(O)cc1)C(=O)N[C@@H](CC(N)=O)C(=O)N[C@@H](Cc1c[nH]c2ccccc12)C(=O)N[C@@H](CC(C)C)C(=O)N[C@H](C(=O)N[C@@H](CCCNC(=N)N)C(=O)N[C@@H](CCC(N)=O)C(=O)N[C@@H](CCCNC(=N)N)C(=O)N[C@@H](Cc1ccc(O)cc1)C(N)=O)[C@@H](C)O)C(C)C` [Compound 33, N{alpha-4}-(3-methylbutanoyl)-N{epsilon-7}-[2-(2-{2-[2-(2-{2-[(4S)-4-carboxy-4-(17-carboxyheptadecanamido)butanamido]ethoxy}ethoxy)acetamido]ethoxy}ethoxy)acetamido]-[4A,7K,9E,11P,18Q,22V,23E,28Y,30W,31L]hPYY (4-36)], the inhibition constant Ki in assay [1] turned out to be 0.45 nM. The “Acute Food Intake 24 h [% vehicle]” value in assay [2] is recorded as 54 % vehicle.

Regarding `CC(C)CC(=O)N[C@@H](C)C(=O)N1CCC[C@H]1C(=O)N[C@@H](CCC(=O)O)C(=O)N[C@@H](CCCCNC(=O)COCCOCCNC(=O)COCCOCCNC(=O)CC[C@H](NC(=O)CCCCCCCCCCCCCCCCC(=O)O)C(=O)O)C(=O)N1CCC[C@H]1C(=O)N[C@@H](CCC(=O)O)C(=O)N[C@@H](CCC(=O)O)C(=O)N[C@@H](CC(=O)O)C(=O)N[C@@H](C)C(=O)N[C@@H](CO)C(=O)N1CCC[C@H]1C(=O)N[C@@H](CCC(=O)O)C(=O)N[C@@H](CCC(=O)O)C(=O)N[C@@H](CC(C)C)C(=O)N[C@@H](CCC(N)=O)C(=O)N[C@@H](CCCNC(=N)N)C(=O)N[C@@H](Cc1ccc(O)cc1)C(=O)N[C@@H](CCC(=O)O)C(=O)N[C@H](C(=O)N[C@@H](CO)C(=O)N[C@@H](CC(C)C)C(=O)N[C@@H](CCCNC(=N)N)C(=O)N[C@@H](Cc1c[nH]cn1)C(=O)N[C@@H](Cc1ccc(O)cc1)C(=O)N[C@@H](Cc1ccc(O)cc1)C(=O)N[C@@H](CC(N)=O)C(=O)N[C@@H](Cc1c[nH]c2ccccc12)C(=O)N[C@@H](CC(C)C)C(=O)N[C@H](C(=O)N[C@@H](CCCNC(=N)N)C(=O)N[C@@H](CCC(N)=O)C(=O)N[C@@H](CCCNC(=N)N)C(=O)N[C@@H](Cc1ccc(O)cc1)C(N)=O)[C@@H](C)O)C(C)C` [Compound 90, N{alpha-4}-(3-methylbutanoyl)-N{epsilon-7}-[2-(2-{2-[2-(2-{2-[(4S)-4-carboxy-4-(17-carboxyheptadecanamido)butanamido]ethoxy}ethoxy)acetamido]ethoxy}ethoxy)acetamido]-[4A,7K,9E,18Q,21E,22V,28Y,30W,31L]hPYY (4-36)], in assay [1], the inhibitory constant (Ki) stood at 1.6 nM. Besides, the “Acute Food Intake 24 h [% vehicle]” value in assay [2] is 70 % vehicle.
